We go through 19 molecules from patent publication US20230257372A1 (CHONG KUN DANG PHARMACEUTICAL CORP., priority 2020, published 2023).

Where two headings read alike, the source gives them in different places. A value given as a limit tells only on which side of the number the result lay.

Experiment [1] has as its target T1, human recombinant HDAC1 (Homo sapiens, UniProt Q13547).
T1 construct: purchased Enzo Life Science, Inc. BML-SE456
Kind of experiment: HDAC1 enzyme activity inhibition (HDAC Fluorimetric Drug Discovery Kit). The class given is biochemical. The following applies: read-out: HDAC1. The essentials:
(§1)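 Five-fold compound dilutions incubated with […] recombinant enzyme and 10 μM fluorogenic Fluor de Lys substrate, 60 min at 30° C. Fluor de Lys Developer II then added for 30 min to generate the fluorescent read-out.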

In experiment [2] the target is T2, human recombinant HDAC6 (Homo sapiens, UniProt Q9UBN7).
T2 construct: purchased Calbiochem Inc. 382180
T2 sequence (Q9UBN7 1-1215): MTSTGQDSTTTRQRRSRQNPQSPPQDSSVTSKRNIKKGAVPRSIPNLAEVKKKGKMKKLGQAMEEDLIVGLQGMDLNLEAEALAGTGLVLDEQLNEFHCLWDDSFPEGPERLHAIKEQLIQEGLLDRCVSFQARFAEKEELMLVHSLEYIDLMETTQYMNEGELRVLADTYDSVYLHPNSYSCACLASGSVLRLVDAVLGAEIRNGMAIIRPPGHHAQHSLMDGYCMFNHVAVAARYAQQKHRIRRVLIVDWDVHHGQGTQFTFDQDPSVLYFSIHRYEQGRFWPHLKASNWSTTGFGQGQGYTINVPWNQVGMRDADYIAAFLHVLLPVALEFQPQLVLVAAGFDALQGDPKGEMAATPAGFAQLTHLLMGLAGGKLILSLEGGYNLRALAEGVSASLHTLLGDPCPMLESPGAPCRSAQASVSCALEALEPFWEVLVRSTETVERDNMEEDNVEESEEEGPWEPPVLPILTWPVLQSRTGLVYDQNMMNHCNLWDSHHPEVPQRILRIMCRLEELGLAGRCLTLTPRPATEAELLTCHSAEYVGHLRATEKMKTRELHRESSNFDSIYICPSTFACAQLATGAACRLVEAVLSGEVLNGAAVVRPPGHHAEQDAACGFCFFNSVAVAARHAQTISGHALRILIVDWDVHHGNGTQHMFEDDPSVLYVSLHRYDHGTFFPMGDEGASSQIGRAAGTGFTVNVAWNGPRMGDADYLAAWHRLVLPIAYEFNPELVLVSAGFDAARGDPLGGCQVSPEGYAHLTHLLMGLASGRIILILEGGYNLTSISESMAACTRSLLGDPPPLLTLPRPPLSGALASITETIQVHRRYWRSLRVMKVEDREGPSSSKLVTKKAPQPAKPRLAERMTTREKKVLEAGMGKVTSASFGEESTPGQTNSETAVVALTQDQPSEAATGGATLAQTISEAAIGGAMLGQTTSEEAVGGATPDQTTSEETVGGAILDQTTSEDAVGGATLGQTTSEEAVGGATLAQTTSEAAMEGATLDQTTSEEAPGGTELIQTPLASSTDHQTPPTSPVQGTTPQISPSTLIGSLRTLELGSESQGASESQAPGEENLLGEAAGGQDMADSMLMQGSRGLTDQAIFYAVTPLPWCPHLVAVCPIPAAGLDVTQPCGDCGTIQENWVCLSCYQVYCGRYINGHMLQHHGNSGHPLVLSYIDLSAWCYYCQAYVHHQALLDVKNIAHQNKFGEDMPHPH
Kind of experiment: HDAC6 enzyme activity inhibition (HDAC Fluorimetric Drug Discovery Kit). The class given is biochemical. The essentials:
as §1

Setting [3] is: human recombinant HDAC1, IC50 calculated with GraphPad Prism.
Where [4] appears, read: human recombinant HDAC6, IC50 calculated with GraphPad Prism.
The mark [5] stands for this setting: human recombinant HDAC1, Fluor de Lys substrate, 30° C. 60 minutes.
Setting [6] is: human recombinant HDAC6, same protocol as HDAC1.

T1 sequence (Q13547 whole entry): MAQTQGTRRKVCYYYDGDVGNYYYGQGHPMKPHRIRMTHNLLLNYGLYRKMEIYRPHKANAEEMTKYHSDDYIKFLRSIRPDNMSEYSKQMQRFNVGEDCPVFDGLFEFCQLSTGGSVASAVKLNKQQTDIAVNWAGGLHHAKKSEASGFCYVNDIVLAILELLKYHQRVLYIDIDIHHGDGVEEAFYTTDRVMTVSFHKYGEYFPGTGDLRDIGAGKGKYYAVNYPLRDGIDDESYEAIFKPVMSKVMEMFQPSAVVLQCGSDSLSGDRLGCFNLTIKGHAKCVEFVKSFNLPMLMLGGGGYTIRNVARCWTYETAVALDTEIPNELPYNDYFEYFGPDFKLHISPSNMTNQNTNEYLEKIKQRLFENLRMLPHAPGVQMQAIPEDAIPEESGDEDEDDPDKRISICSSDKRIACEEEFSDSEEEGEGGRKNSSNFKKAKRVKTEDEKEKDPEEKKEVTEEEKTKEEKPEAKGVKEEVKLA

For `OCc1c(-c2ccccc2)nnn1Cc1ccc(-c2nnc(C(F)F)o2)cc1F` [Compound 4479, (1-(4-(5-(difluoromethyl)-1,3,4-oxadiazol-2-yl)-2-fluorobenzyl)-4-phenyl-1H-1,2,3-triazol-5-yl)methanol], the IC50 in experiment [1] (setting [3]) is > 50000 nM; in experiment [2] (setting [4]), 483 nM. Moreover, in experiment [2] (HDAC1 IC50 / HDAC6 IC50), the “HDAC6 selectivity (fold)” value amounted to 103 fold.
Regarding `CN1CC(NC(=O)c2cccc(-c3cn(Cc4ccc(-c5nnc(C(F)F)o5)cn4)nn3)c2)C1` [Compound 4480, 3-(1-((5-(5-(difluoromethyl)-1,3,4-oxadiazol-2-yl)pyridin-2-yl)methyl)-1H-1,2,3-triazol-4-yl)-N-(1-methylazetidin-3-yl)benzamide], the IC50 in experiment [1] (setting [3]) was > 50000 nM; in experiment [2] (setting [4]), 36 nM. In experiment [2] (HDAC1 IC50 / HDAC6 IC50), the “HDAC6 selectivity (fold)” value was 1388 fold.
For `CCN1CCN(C(=O)c2cccc(-c3cn(Cc4ccc(-c5nnc(C(F)F)o5)cn4)nn3)c2)CC1` [Compound 4482, (3-(1-((5-(5-(difluoromethyl)-1,3,4-oxadiazol-2-yl)pyridin-2-yl)methyl)-1H-1,2,3-triazol-4-yl)phenyl)(4-ethylpiperazin-1-yl)methanone], in that order: > 50000 nM, 53 nM and 943 fold.
As for `CN1CCN(c2cccc(-c3cn(Cc4ccc(-c5nnc(C(F)F)o5)cc4)nn3)c2F)CC1` [Compound 4483, 2-(difluoromethyl)-5-(4-((4-(2-fluoro-3-(4-methylpiperazin-1-yl)phenyl)-1H-1,2,3-triazol-1-yl)methyl)phenyl)-1,3,4-oxadiazole], the IC50 was > 50000 nM in experiment [1] (setting [3]) and 34.1 nM in experiment [2] (setting [4]). For the same molecule, in experiment [2] (HDAC1 IC50 / HDAC6 IC50), the “HDAC6 selectivity (fold)” value was determined as 1466 fold.
The like results for `FC(F)c1cccc(-c2cn(Cc3ccc(-c4nnc(C(F)F)o4)cc3)nn2)c1` [Compound 4487, 2-(difluoromethyl)-5-(4-((4-(3-(difluoromethyl)phenyl)-1H-1,2,3-triazol-1-yl)methyl)phenyl)-1,3,4-oxadiazole] were, in that order, > 50000 nM, 79.7 nM and 627 fold.
For `Fc1cc(-c2nnc(C(F)F)o2)ccc1Cn1cc(-c2cccc(C(F)F)c2)nn1` [Compound 4488, 2-(difluoromethyl)-5-(4-((4-(3-(difluoromethyl)phenyl)-1H-1,2,3-triazol-1-yl)methyl)-3-fluorophenyl)-1,3,4-oxadiazole], in that order: > 50000 nM, 47.2 nM and 1059 fold.
The like results for `FC(F)c1cccc(-c2cn(Cc3ccc(-c4nnc(C(F)F)o4)cn3)nn2)c1` [Compound 4489, 2-(difluoromethyl)-5-(6-((4-(3-(difluoromethyl)phenyl)-1H-1,2,3-triazol-1-yl)methyl)pyridin-3-yl)-1,3,4-oxadiazole] were, in that order, > 50000 nM, 14.7 nM and 3401 fold.
Regarding `CN(C)Cc1c(-c2ccccc2)nnn1Cc1ccc(-c2nnc(C(F)F)o2)cn1` [Compound 4490, 1-(1-((5-(5-(difluoromethyl)-1,3,4-oxadiazol-2-yl)pyridin-2-yl)methyl)-4-phenyl-1H-1,2,3-triazol-5-yl)-N,N-dimethylmethanamine], the IC50 in experiment [1] (setting [3]) was > 50000 nM; in experiment [2] (setting [4]) it was 87.5 nM. Besides, the “HDAC6 selectivity (fold)” value in experiment [2] (HDAC1 IC50 / HDAC6 IC50) is 571 fold.
With `CN(C)Cc1c(-c2ccccc2)nnn1Cc1ccc(-c2nnc(C(F)F)o2)cc1F` [Compound 4491, 1-(1-(4-(5-(difluoromethyl)-1,3,4-oxadiazol-2-yl)-2-fluorobenzyl)-4-phenyl-1H-1,2,3-triazol-5-yl)-N,N-dimethylmethanamine], the IC50 in experiment [1] (setting [3]) was > 50000 nM; in experiment [2] (setting [4]) it was 115 nM. In addition, the “HDAC6 selectivity (fold)” value in experiment [2] (HDAC1 IC50 / HDAC6 IC50) amounted to 433 fold.
For `CC1CCN(Cc2c[nH]c3cc(-c4cn(Cc5ccc(-c6nnc(C(F)F)o6)cc5)nn4)ccc23)CC1` [Compound 4492, 2-(difluoromethyl)-5-(4-((4-(3-((4-methylpiperidin-1-yl)methyl)-1H-indol-6-yl)-1H-1,2,3-triazol-1-yl)methyl)phenyl)-1,3,4-oxadiazole], in that order: > 50000 nM, 15 nM and 3333 fold.
As to `FC(F)c1nnc(-c2ccc(Cn3cc(-c4ccc5c(CN6CCCC6)c[nH]c5c4)nn3)nc2)o1` [Compound 4493, 2-(difluoromethyl)-5-(6-((4-(3-(pyrrolidin-1-ylmethyl)-1H-indol-6-yl)-1H-1,2,3-triazol-1-yl)methyl)pyridin-3-yl)-1,3,4-oxadiazole], the IC50 is > 50000 nM in experiment [1] (setting [3]) and 6.5 nM in experiment [2] (setting [4]). Besides, in experiment [2] (HDAC1 IC50 / HDAC6 IC50), the “HDAC6 selectivity (fold)” value turned out to be 7692 fold.
Take `CN(C)C1CCN(Cc2ccc(-c3cn(Cc4ccc(-c5nnc(C(F)F)o5)cc4F)nn3)cc2)CC1` [Compound 4494, 1-(4-(1-(4-(5-(difluoromethyl)-1,3,4-oxadiazol-2-yl)-2-fluorobenzyl)-1H-1,2,3-triazol-4-yl)benzyl)-N,N-dimethylpiperidin-4-amine]: the IC50 is > 50000 nM in experiment [1] (setting [3]) and 34.1 nM in experiment [2] (setting [4]). The “HDAC6 selectivity (fold)” value in experiment [2] (HDAC1 IC50 / HDAC6 IC50) was 1466 fold.
For `CC(C)(C)OC(=O)NC(C)(C)C(=O)Nc1cccc(-c2cn(Cc3ccc(-c4nnc(C(F)F)o4)cn3)nn2)c1` [Compound 4495], in that order: > 50000 nM, 22.1 nM and 2262 fold.
The like results for `CC(C)(C)OC(=O)NC1(C(=O)Nc2cccc(-c3cn(Cc4ccc(-c5nnc(C(F)F)o5)cn4)nn3)c2)CCC1` [Compound 4496, tert-butyl (1-((3-(1-((5-(5-(difluoromethyl)-1,3,4-oxadiazol-2-yl)pyridin-2-yl)methyl)-1H-1,2,3-triazol-4-yl)phenyl)carbamoyl)cyclobutyl)carbamate] were, in that order, > 50000 nM, 14.9 nM and 3355 fold.
The like results for `CC(C)(N)C(=O)Nc1cccc(-c2cn(Cc3ccc(-c4nnc(C(F)F)o4)cn3)nn2)c1` [Compound 4497, 2-amino-N-(3-(1-((5-(5-(difluoromethyl)-1,3,4-oxadiazol-2-yl)pyridin-2-yl)methyl)-1H-1,2,3-triazol-4-yl)phenyl)-2-methylpropanamide] were, in that order, > 50000 nM, 13.3 nM and 3759 fold.
For the molecule `NC1(C(=O)Nc2cccc(-c3cn(Cc4ccc(-c5nnc(C(F)F)o5)cn4)nn3)c2)CCC1` [Compound 4498, 1-amino-N-(3-(1-((5-(5-(difluoromethyl)-1,3,4-oxadiazol-2-yl)pyridin-2-yl)methyl)-1H-1,2,3-triazol-4-yl)phenyl)cyclobutan-1-carboxamide], the IC50 in experiment [1] (setting [5]) was > 50000 nM; in experiment [2] (setting [6]), 30.7 nM. For the same molecule, in experiment [2] (HDAC6 over HDAC1), the “HDAC6 selectivity (fold)” value amounted to 1628 fold.
In the case of `Fc1cc(-c2nnc(C(F)F)o2)ccc1Cn1cc(-c2cc3c(s2)CNCC3)nn1` [Compound 4499, 2-(difluoromethyl)-5-(3-fluoro-4-((4-(4,5,6,7-tetrahydrothieno[2,3-c]pyridin-2-yl)-1H-1,2,3-triazol-1-yl)methyl)phenyl)-1,3,4-oxadiazole], the IC50 in experiment [1] (setting [5]) was > 50000 nM; in experiment [2] (setting [6]), 54.2 nM. In addition, in experiment [2] (HDAC6 over HDAC1), the “HDAC6 selectivity (fold)” value was found to be 922 fold.
The like results for `CN1CCc2cc(-c3cn(Cc4ccc(-c5nnc(C(F)F)o5)cc4F)nn3)sc2C1` [Compound 4500, 2-(difluoromethyl)-5-(3-fluoro-4-((4-(6-methyl-4,5,6,7-tetrahydrothieno[2,3-c]pyridin-2-yl)-1H-1,2,3-triazol-1-yl)methyl)phenyl)-1,3,4-oxadiazole] were, in that order, > 50000 nM, 121 nM and 413 fold.
For `CC(C)N1CCc2cc(-c3cn(Cc4ccc(-c5nnc(C(F)F)o5)cc4F)nn3)sc2C1` [Compound 4501], in that order: > 50000 nM, 137 nM and 365 fold.
